Data taken from patent US8343515B2, “Perfluorocarbon gel formulations” (Oxygen Biotherapeutics, Inc., priority 2008, dated 2013).
Where two headings read alike, the source gives them in different places.

Columns and labels:
[1] = Gas solubility / Henry's Law sorption of oxygen and CO2 in the liquid; format: physicochemical
Method: The amount of dissolved oxygen in the liquid is measured after equilibration with a gas. The partial pressure of the gas (here, oxygen) is varied. The partial pressure of oxygen in air is 0.21 atm.
The amount of oxygen dissolved in each when the liquids are at equilibrium with the oxygen in the air can be found from the Henry's Law sorption isotherms for the liquids sketched in FIG. 2.
When the solubility of a gas in a liquid is measured, the solubility is nearly always a linear function of the partial pressure of the gas.

[2] = Water solubility and lipophilicity (descriptive); format: physicochemical
[3] = system: skin tissue; experiment: Measuring oxygen tension in tissue with fluorescent marker (Example 4); format: in vivo; settings: fluorescent marker injected into skin area treated with PFC or PFC gel
Method: A material which binds oxygen (fluorescent marker) is injected into skin tissue. The combination is fluorescent and the more oxygen that is present, the stronger the fluorescent signal. (representing the oxygen tension in the tissue). First it is determined that fluorescence chemistry is unaffected by the PFCs and poloxamers. Then as a control, the fluorescent marker is injected into the skin, and oxygen tension is obtained. Finally, the same area is treated with a PFC or a PFC gel and oxygen tension is again obtained.

[4] = 25° C.; cited from earlier work
[5] = Physical properties of perfluoro(tert-butylcyclohexane); format: physicochemical
Source text: Physical properties of perfluoro(tert-butylcyclohexane) are as follows: […]

[6] = used for conversion to weight basis

Molecule | CO2 carried [1] | oxygen carried [1] | oxygen held in contact with air [1] | lipophilicity [2] | solubility in water [2] | lipophilicity ([2]; at body temperature) | lipophilicity ([2]; at room temperature) | oxygen tension in tissue [3] | Henry's law constant for oxygen [4] | Kinematic Viscosity (cP) [5] [cP] | density [5] [g/L] | Vapor Pressure (mmHg) @ 25° C. ([5]; 25° C.) [mmHg] | Vapor Pressure (mmHg) @ 37° C. ([5]; 37° C.) [mmHg] | density [5, 6] [g/L]
FC(F)(F)C(C(F)(F)F)(C(F)(F)F)C1(F)C(F)(F)C(F)(F)C(F)(F)C(F)(F)C1(F)F [perfluoro(tert-butylcyclohexane)] | 196 mL of CO2 per 100 mL of PFC | about 43 mL of oxygen per 100 mL of PFC | about 126 mg O2 | non-lipophilic | non-water soluble | only slightly lipophilic | not lipophilic | substantially increases local oxygen tension in the tissue | about 600 mg O2/L/atm | 5.378 | 1970 | 3.8 | 4.4 | 1966
perfluoroisopropyldecalin [APF-200, reference compound] | – | – | – | – | – | – | – | substantially increases local oxygen tension in the tissue | – | – | – | – | – | –
water | – | – | – | – | – | – | – | – | about 8.3 mg O2/L/atm | – | – | – | – | 1000
